The results in this text go back to patent publication US20070191495A1, “Lipase inhibitor” (FUJI OIL COMPANY, LIMITED, priority 2004, published 2007).

For one experiment, the target named is T1, pig pancreatic lipase (Sus scrofa, UniProt P00591).
T1 construct: purchased Sigma
T1 sequence (P00591 1-450): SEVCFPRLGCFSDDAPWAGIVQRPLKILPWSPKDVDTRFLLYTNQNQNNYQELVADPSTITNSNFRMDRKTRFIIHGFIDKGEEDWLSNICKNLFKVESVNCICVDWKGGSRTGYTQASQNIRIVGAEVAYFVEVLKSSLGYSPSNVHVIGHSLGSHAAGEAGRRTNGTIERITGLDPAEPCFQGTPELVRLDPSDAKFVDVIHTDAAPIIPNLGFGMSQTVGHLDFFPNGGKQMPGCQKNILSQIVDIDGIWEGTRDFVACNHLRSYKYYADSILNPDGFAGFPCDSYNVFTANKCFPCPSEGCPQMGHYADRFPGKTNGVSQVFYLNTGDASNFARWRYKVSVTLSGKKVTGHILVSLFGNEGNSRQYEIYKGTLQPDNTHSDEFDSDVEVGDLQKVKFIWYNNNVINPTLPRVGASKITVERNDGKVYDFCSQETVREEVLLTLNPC
Description: lipase activity measurement (free fatty acid released from emulsified fat, OD480). The class given is biochemical. As to conditions: for Relative activity of test fat to soybean oil: 37° C., 1 hour. The procedure: (§1) Soybean oils of which 1 part (2O2 purity: about 0.8%), 5 parts (2O2 purity: about 4.2%), 10 parts (2O2 purity: about 8.3%) and 50 parts (2O2 purity about: 41.5%) were replaced with the 2O2 fraction obtained as described above, and the 2O2 fraction itself (2O2 purity: 83%) were used for the following lipase activity measurement. To 80 mg of each oil, 80 mg of phosphatidylcholine (Sigma), 5 mg of sodium taurocholate (Wako Pure Chemical Industries, Ltd.), and 9 ml of a 0.1 M TES buffer (PH 7) containing 0.1 M NaCl were added and the mixture was emulsified with an ultrasound oscillator for 1 minute to obtain a substrate. To 300 μl of the substrate, 5 μl (5U) of a pig pancreatic lipase (Sigma) was added and then reacted at 37° C. for 1 hour. To the reaction mixture was then added 3 ml of an extraction solvent (a mixture of chloroform/heptane/methanol=49 parts/49 parts/2 parts). The mixture was stirred vigorously and then centrifuged at 2500 rpm for 5 minutes. The upper layer was removed. To the lower layer was added 1 ml of a copper regent (prepared by dissolving 2.98 g of triethanolamine, 2.42 g of copper nitrate and 0.48 g of NaOH in 200 ml of water and then adding 66 g of NaCl). The mixture was stirred for 10 minutes and then centrifuged at 2500 rpm for 10 minutes to take 1.5 ml of the upper layer as a sample. To the sample was added 1.5 ml of a color-producing reagent (prepared by 0.2 g of bathocuproin and 0.1 g of butylhydroxyanisole in 200 ml of chloroform) and an absorbance at OD480 was measured as the quantity of free fatty acid.
as §1, with “(LUU/UUL” for “(2O2”, “0.7%),” for “0.8%),”, “3.5%) and” for “4.2%),”, “7.0%)” for “8.3%) and 50 parts (2O2 purity about: 41.5%)”, “LUU/UUL” for “2O2”, “70%)” for “83%)”
Soybean oils of which 1 part, 5 parts and 10 parts were replaced with the glyceryl ether lipid fraction obtained as described above, and the glyceryl ether lipid fraction itself were used for the following lipase activity measurement. To 80 mg of each oil, 80 mg of phosphatidylcholine (Sigma), 5 mg of sodium taurocholate (Wako Pure Chemical Industries, Ltd.), and 9 ml of a 0.1 M TES buffer (PH 7) containing 0.1 M NaCl were added and the mixture was emulsified with an ultrasound oscillator for 1 minute to obtain a substrate. To 300 μl of the substrate, 5 μl (5U) of a pig pancreatic lipase (Sigma) was added and then reacted at 37° C. for 1 hour. To the reaction mixture was then added 3 ml of an extraction solvent (a mixture of chloroform/heptane/methanol =49 parts/49 parts/2 parts). The mixture was stirred vigorously and then centrifuged at 2500 rpm for 5 minutes. […]

Experiment [1] can be described thus: Digestion and absorption test in mouse. The following applies: for Body fat percentage: PIXImus2; for Body weight: in g (unit assumed). The class given is in vivo, C57BL/6J mice. The procedure: Using the 2O2 fraction obtained in Preparation Example 1 and mice, a digestion and absorption test was performed for about 2 months. Seven-week-old C57BL/6J mice were pre-reared for 1 week and used for the test. The compounded feed shown in Table 2, which is prepared by partially modifying AIN-93G composition, or soybean oil as a control was fed to the mice for about 2 months. Each group consisted of 6 mice. After reared for about 2 months, a change in the body weight, feed efficiency and body fat percentage were measured. For measuring body fat percentage, an X-ray bone density measuring apparatus for exclusive use in experimental mice, PIXImus2 (GE Medical Systems) was used. As a result of a digestion and adsorption test on mice for 56 days, in a group using the 2O2 fraction, the body weight was reduced by about 10%, the feed efficiency was reduced by 17%, and the body fat percentage was reduced by about 14%.
Using the LUU/UUL fraction obtained in Preparation Example 3 and mice, a digestion and absorption test was performed for about 2 months. Seven-week-old C57BL/6J mice were pre-reared for 1 week and used for the test. The compounded feed shown in Table 5, which is prepared by partially modifying AIN-93G composition, or soybean oil as a control was fed to the mice for about 2 months. Each group consisted of 6 mice. After reared for about 2 months, a change in the body weight, feed efficiency and body fat percentage were measured. For measuring body fat percentage, an X-ray bone density measuring apparatus for exclusive use in experimental mice, PIXImus2 (GE Medical Systems) was used. As a result of a digestion and adsorption test on mice for 56 days, in a group using the […] fraction, the body weight was reduced by about 9%, the feed efficiency was reduced by 12%, and the body fat percentage was reduced by about 13%.
Using the glyceryl ether lipid fraction obtained in Preparation Example 4 and mice, a digestion and absorption test was performed for about 2 months. Seven-week-old C57BL/6J mice were pre-reared for 1 week and used for the test. The compounded feed shown in Table 8, which is prepared by partially modifying AIN-93G composition, or soybean oil as a control was fed to the mice for about 2 months. Each group consisted of 6 mice. After reared for about 2 months, a change in the body weight, feed efficiency and body fat percentage were measured. For measuring body fat percentage, an X-ray bone density measuring apparatus for exclusive use in experimental mice, PIXImus2 (GE Medical Systems) was used. As a result of a digestion and adsorption test on mice for 56 days, in a group using soybean oil/the glyceryl ether lipid fraction, the body weight and the feed efficiency were reduced by bout 10%, and the body fat percentage was reduced by about 12%.

[2] abbreviates: fat composition soybean oil/test fat 0/100 (part), the fraction itself.
The mark [3] stands for this setting: fat composition soybean oil/test fat 50/50 (part).
Setting [4] is: fat composition soybean oil/test fat 90/10 (part).
[5] abbreviates: fat composition soybean oil/test fat 95/5 (part).
[6] abbreviates: fat composition soybean oil/test fat 99/1 (part).
[7] abbreviates: soybean oil of which 1 part was replaced with the test fat.
[8] abbreviates: 56 days, versus soybean oil group.
[9] abbreviates: after rearing for 56 days, feed with 10.0 wt % soybean oil + 0.5 wt % test fraction.
Where [10] appears, read: before initiation of rearing, feed with 10.0 wt % soybean oil + 0.5 wt % test fraction.

On to `CCCCCCCC/C=C\CCCCCCCC(=O)OC(COC(C)=O)COC(C)=O` [2O2], for which the “Relative activity of test fat to soybean oil” value amounted to 11% at pig pancreatic lipase (setting [2]); 48% on pig pancreatic lipase (setting [3]); 67% on pig pancreatic lipase (setting [4]); 66% at pig pancreatic lipase (setting [5]); 78% on pig pancreatic lipase (setting [6]). Also, the entries for the “activity inhibited by” value on pig pancreatic lipase (setting [7]) and on pig pancreatic lipase (soybean oil of which 5 parts were replaced with the test fat) were “about 20%” and “about 35%”, respectively. The “body fat percentage reduced by” value in experiment [1] (setting [8]) is “about 14%”. Moreover, the “body weight reduced by” value in experiment [1] (setting [8]) was “about 10%”. Moreover, the “feed efficiency reduced by” value in experiment [1] (setting [8]) was determined as 17%. The Body fat percentage in experiment [1] (setting [9]) is 34.8 ± 2.5; in experiment [1] (setting [10]), 19.1 ± 0.9. For the same molecule, the Feed efficiency in experiment [1] (setting [9]) turned out to be 0.061 ± 0.002. For the same molecule, the Body weight is reported as 30.7 ± 1.4 in experiment [1] (setting [9]) and 22.8 ± 0.3 in experiment [1] (setting [10]).
In the case of `CCCCCCCC/C=C\CCCCCCCC(=O)OC(COC(=O)CCCCC)COC(=O)CCCCC` [6O6], the “Relative activity of test fat to soybean oil” value at pig pancreatic lipase (setting [2]) amounted to 30%; on pig pancreatic lipase (setting [3]) it was 68%; on pig pancreatic lipase (setting [4]), 74%; at pig pancreatic lipase (setting [5]), 91%; at pig pancreatic lipase (setting [6]) it was 86%. Besides, the results for the “activity inhibited by” value on pig pancreatic lipase (setting [7]) and on pig pancreatic lipase (soybean oil of which 10 parts was replaced with the test fat) were “about 15%” and “about 25%”, respectively.
